In patent US10005767B2, “Compositions and methods for inhibition of the JAK pathway” (Rigel Pharmaceuticals, Inc., priority 2009, dated 2018) one finds IC50 data, which are given here for 32 molecules.

Molecules are shown by their SMILES. pIC50: −log10 of the molar value. Where two headings read alike, the source gives them in different places.

In the experiment the test system is human primary T-cells, IL-2 stimulated proliferation (JAK-1 and JAK-3 dependent; reported as JAK3 activity). Briefly: Human primary T-cell proliferation stimulated by IL-2 (Example 3). The following applies: tested under conditions described in Example 3 (IL-2 stimulated human primary T-cell proliferation), read-out: ability to inhibit JAK3 activity, IC50 range (Table V). Format: cell-based. The method in brief:
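Peripheral-blood human T-cells pre-activated via TCR/CD28, IL-2-starved overnight, then cultured 72 h at 37 °C with compound in Yssel's medium containing IL-2 (80 U/mL in cell suspension). Proliferation read as viable-cell ATP by CellTiter-Glo luminescence; reduction versus control taken as JAK pathway inhibition.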

For orientation: pIC50 means the IC50 on a negative log10 scale, so that one unit is a factor of ten.

Turning to `Cc1cnc(Nc2cccc(C(C)NCc3ccccc3)c2)nc1Nc1ccc2oc(=O)[nH]c2c1` (centres unmarked) [Compound I-213, 5-(2-(3-(1-(benzylamino)ethyl)phenylamino)-5-methylpyrimidin-4-ylamino)benzo[d]oxazol-2(3H)-one], the pIC50 (Homo sapiens, T-cell) is greater than 6.30.
`Cc1cnc(Nc2ccc(N3CCC(F)(F)CC3)nc2)nc1Nc1ccc2oc(=O)[nH]c2c1` [II-59, 5-(2-(6-(4,4-difluoropiperidin-1-yl)pyridin-3-ylamino)-5-methylpyrimidin-4-ylamino)benzo[d]oxazol-2(3H)-one]: the pIC50 (Homo sapiens, T-cell) was greater than 6.30.
As for `Cc1cnc(Nc2cc(OCC3CCC3)cc(C(F)(F)F)c2)nc1Nc1ccc2oc(=O)[nH]c2c1` [Compound I-227, 5-(2-(3-(cyclobutylmethoxy)-5-(trifluoromethyl)phenylamino)-5-methylpyrimidin-4-ylamino)benzo[d]oxazol-2(3H)-one], the pIC50 (Homo sapiens, T-cell) was 5.30 to 6.30.
On to `COc1cc(Nc2ncc(C)c(Nc3ccc4oc(=O)[nH]c4c3)n2)ccc1C` [Compound I-351, N2-(3-methoxy-4-methyl)phenyl-5-methyl-N4-(2-oxo-2,3-dihydro-1,3-benzoxazol-5-yl)-2,4-pyrimidinediamine], for which the negative-log IC50 (pIC50) was greater than 6.30.
As for `Cc1cc(F)c(Nc2ncc(C)c(Nc3ccc4oc(=O)[nH]c4c3)n2)cc1C` [Compound I-530, 5-(2-(2-fluoro-4,5-dimethylphenylamino)-5-methylpyrimidin-4-ylamino)benzo[d]oxazol-2(3H)-one], the pIC50 (Homo sapiens, T-cell) was greater than 6.30.
For the molecule `COc1ncc(Nc2ncc(C)c(Nc3ccc4oc(=O)[nH]c4c3)n2)cc1C(F)(F)F` [II-147, N2-(2-methoxy-3-trifluoromethylpyridin-5-yl)-5-methyl-N4-(2-oxo-2,3-dihydro-1,3-benzoxazol-5-yl)-2,4-pyrimidinediamine], the pIC50 (Homo sapiens, T-cell) was greater than 6.30.
`COc1cc(C)cc(Nc2ncc(C)c(Nc3cc(F)c4oc(=O)[nH]c4c3)n2)c1` [Compound I-430, 7-fluoro-5-(2-(3-methoxy-5-methylphenylamino)-5-methylpyrimidin-4-ylamino)benzo[d]oxazol-2(3H)-one]: the pIC50 (Homo sapiens, T-cell) was greater than 6.30.
With `Cc1cnc(Nc2ccc(NS(C)(=O)=O)cc2)nc1Nc1ccc2[nH]c(=O)oc2c1` [Compound I-103, N2-((4-methylsulfonylamino)phenyl)-N4-(2-oxo-2,3-dihydrobenzo[d]oxazol-6-yl)-5-methylpyrimidine-2,4-diamine], the pIC50 was less than 5.00.
For the molecule `Cc1cnc(Nc2ccc(N3C[C@@H]4C[C@H]3CN4C)nc2)nc1Nc1ccc2oc(=O)[nH]c2c1` [II-31, N4-(benzoxazolin-2-on-5-yl)-N2-[2-((1S,4S)-5-methyl-2,5-diazabicyclo[2.2.1]heptan-2-yl)pyridin-5-yl]-5-methylpyrimidine-2,4-diamine], the pIC50 (Homo sapiens, T-cell) is greater than 6.30.
On the same count and under the same terms, under `COCCN1C(=O)C(C)(C)Oc2cc(Nc3ncc(C)c(Nc4ccc5oc(=O)[nH]c5c4)n3)cnc21` [IV-45, N2-[2,2-dimethyl-4-(2-methoxyethyl)-2H-pyrido[3,2-b][1,4]oxazin-3(4H)-one-7-yl]-5-methyl-N4-(2-oxo-2,3-dihydro-1,3-benzoxazol-5-yl)-2,4-pyrimidinediamine] stands greater than 6.30; under `Cc1ccccc1Nc1ncc(C)c(Nc2ccc3oc(=O)[nH]c3c2)n1` [Compound I-499, 5-(2-(o-toluidino)-5-methylpyrimidin-4-ylamino)benzo[d]oxazol-2(3H)-one], 5.30 to 6.30.
Turning to `Cc1cnc(Nc2ccc(S(N)(=O)=O)cc2)nc1Nc1ccc2[nH]c(=O)oc2c1` [Compound I-99, N2-((4-aminosulfonyl)phenyl)-N4-(2-oxo-2,3-dihydrobenzo[d]oxazol-6-yl)-5-methylpyrimidine-2,4-diamine], the pIC50 was greater than 6.30.
For `Cc1cnc(Nc2cc(C)c(C)c(C)c2)nc1Nc1cc(F)c2oc(=O)[nH]c2c1` [Compound I-489, 7-fluoro-5-(5-methyl-2-(3,4,5-trimethylphenylamino)pyrimidin-4-ylamino)benzo[d]oxazol-2(3H)-one], the pIC50 (Homo sapiens, T-cell) is greater than 6.30.
For the molecule `Cc1cnc(Nc2cccc(F)c2F)nc1Nc1ccc2oc(=O)[nH]c2c1` [Compound I-467, 5-[2-(2,3-Difluoro-phenylamino)-5-methyl-pyrimidin-4-ylamino]-3H-benzooxazol-2-one], where the note is “Homo sapiens, T-cell”, the pIC50 was greater than 6.30.
Turning to `Cc1cnc(Nc2cc(C(C)O)ccc2F)nc1Nc1ccc2oc(=O)[nH]c2c1` (centres unmarked) [Compound I-523, 5-(2-(2-fluoro-5-(1-hydroxyethyl)phenylamino)-5-methylpyrimidin-4-ylamino)benzo[d]oxazol-2(3H)-one], the pIC50 (Homo sapiens, T-cell) is greater than 6.30.
Turning to `COc1ccc(Nc2ncc(C)c(Nc3ccc4oc(=O)[nH]c4c3)n2)cc1F` [Compound I-350, N2-(3-fluoro-4-methoxy)phenyl-5-methyl-N4-(2-oxo-2,3-dihydro-1,3-benzoxazol-5-yl)-2,4-pyrimidinediamine], the negative-log IC50 (pIC50) is greater than 6.30.
Consider `Cc1cnc(Nc2ccc3c(c2)OC(C)(C)C(=O)N3)nc1Nc1ccc2oc(=O)[nH]c2c1` [IV-50, N2-[2,2-dimethyl-2H-1,4-benzoxazin-3(4H)-one-7-yl]-5-methyl-N4-(2-oxo-2,3-dihydro-1,3-benzoxazol-5-yl)-2,4-pyrimidinediamine], for which the pIC50 (Homo sapiens, T-cell) is greater than 6.30.
For the molecule `Cc1cnc(Nc2ccc(F)c(OC(F)(F)F)c2)nc1Nc1ccc2oc(=O)[nH]c2c1` [Compound I-163, 5-[2-(4-Fluoro-3-trifluoromethoxy-phenylamino)-5-methyl-pyrimidin-4-ylamino]-3H-benzooxazol-2-one], the pIC50 (Homo sapiens, T-cell) was greater than 6.30.
For the molecule `Cc1cc(Nc2ncc(C)c(Nc3ccc4oc(=O)[nH]c4c3)n2)cc(C(F)F)c1` [Compound I-237, 5-(2-(3-(difluoromethyl)-5-methylphenylamino)-5-methylpyrimidin-4-ylamino)benzo[d]oxazol-2(3H)-one], the pIC50 (Homo sapiens, T-cell) is greater than 6.30.
With `Cc1cnc(Nc2cc(F)cc(N3CCOCC3)c2)nc1Nc1ccc2oc(=O)[nH]c2c1` [Compound I-240, 5-(2-(3-fluoro-5-morpholinophenylamino)-5-methylpyrimidin-4-ylamino)benzo[d]oxazol-2(3H)-one], the pIC50 (Homo sapiens, T-cell) is greater than 6.30.
As for `Cn1c(=O)n(C)c2cc(Nc3nc(Nc4cccc(S(C)(=O)=O)c4)ncc3F)ccc21` [Compound I-41, N4-(1,3-dimethylbenzimidazolin-2-on-5-yl)-N2-((3-methylsulfonyl)phenyl)-5-fluoropyrimidine-2,4-diamine], the pIC50 is 5.30 to 6.30.
With `CCc1cc(Nc2ncc(C)c(Nc3ccc4oc(=O)[nH]c4c3)n2)cc(C#N)c1Cl` [Compound I-383, N2-(4-chloro-3-cyano-5-ethyl)phenyl-5-methyl-N4-(2-oxo-2,3-dihydro-1,3-benzoxazol-5-yl)-2,4-pyrimidinediamine], the pIC50 was 5.30 to 6.30.
For `Cc1cnc(Nc2ccc(N(C)S(C)(=O)=O)cc2)nc1Nc1ccc2c(c1)oc(=O)n2C` [Compound I-95, N2-((4-methylsulfonyl-N-methylamino)phenyl)-N4-(3-methyl-2-oxo-2,3-dihydrobenzo[d]oxazol-6-yl)-5-methylpyrimidine-2,4-diamine], the pIC50 is greater than 6.30.
For `Cc1cnc(Nc2ccc(OCCN3CCOCC3)cc2)nc1Nc1ccc2oc(=O)[nH]c2c1` [Compound I-192, 5-{5-Methyl-2-[4-(2-morpholin-4-yl-ethoxy)-phenylamino]-pyrimidin-4-ylamino}-3H-benzooxazol-2-one], the negative-log IC50 (pIC50) (Homo sapiens, T-cell) was greater than 6.30.
As for `Cn1c(=O)oc2ccc(Nc3nc(Nc4ccc(S(C)(=O)=O)cc4)ncc3F)cc21` [Compound I-78, N2-((4-methylsulfonyl)phenyl)-N4-(3-methyl-2-oxo-2,3-dihydrobenzo[d]oxazol-5-yl)-5-fluoropyrimidine-2,4-diamine], the pIC50 is 5.30 to 6.30.
As to `Cc1cnc(Nc2cccc(NS(C)(=O)=O)c2)nc1Nc1ccc2c(c1)oc(=O)n2C` [Compound I-73, N2-((3-methylsulfonylamino)phenyl)-N4-(3-methyl-2-oxo-2,3-dihydrobenzo[d]oxazol-6-yl)-5-methylpyrimidine-2,4-diamine], the pIC50 is greater than 6.30.
As to `Cc1cnc(Nc2ccc(N3CCN(C)CC3)nc2)nc1Nc1cc(F)c2oc(=O)[nH]c2c1` [II-75, 7-fluoro-5-(5-methyl-2-(6-(4-methylpiperazin-1-yl)pyridin-3-ylamino)pyrimidin-4-ylamino)benzo[d]oxazol-2(3H)-one], the pIC50 (Homo sapiens, T-cell) is greater than 6.30.
Turning to `Cc1cnc(Nc2ccc(OCCN(C)C)cc2)nc1Nc1ccc2oc(=O)[nH]c2c1` [Compound I-426, 5-{2-[4-(2-Dimethylamino-ethoxy)-phenylamino]-5-methyl-pyrimidin-4-ylamino}-3H-benzooxazol-2-one], the pIC50 (Homo sapiens, T-cell) is greater than 6.30.
Turning to `Cc1cnc(Nc2cnc(N3CCN4CCC3CC4)c(F)c2)nc1Nc1ccc2oc(=O)[nH]c2c1` [II-125, N2-[2-(1,4-diazabicylco[3.2.2]nonan-4-yl)-3-fluoropyridin-5-yl]-5-methyl-N4-(2-oxo-2,3-dihydro-1,3-benzoxazol-5-yl)-2,4-pyrimidinediamine], the pIC50 was greater than 6.30.
Consider `Cc1cnc(Nc2ccc(C(=O)N3CCN(CC4CC4)CC3)nc2)nc1Nc1ccc2oc(=O)[nH]c2c1` [II-46, 5-{2-[6-(4-Cyclopropylmethyl-piperazine-1-carbonyl)-pyridin-3-ylamino]-5-methyl-pyrimidin-4-ylamino}-3H-benzooxazol-2-one], for which, where the note is “Homo sapiens, T-cell”, the pIC50 is 5.30 to 6.30.
Take `COc1ccc(Nc2ncc(C)c(Nc3ccc4oc(=O)[nH]c4c3)n2)cc1OCC(=O)NC1CC1` [Compound I-293, N2-[3-(cyclopropylaminocarbonylmethoxy)-4-methoxy]phenyl-5-methyl-N4-(2-oxo-2,3-dihydro-1,3-benzoxazol-5-yl)-2,4-pyrimidinediamine]: the pIC50 was greater than 6.30.
In the case of `COc1c(F)ccc(Nc2ncc(C)c(Nc3cc(F)c4oc(=O)[nH]c4c3)n2)c1F` [Compound I-508, 5-(2-(2,4-difluoro-3-methoxyphenylamino)-5-methylpyrimidin-4-ylamino)-7-fluorobenzo[d]oxazol-2(3H)-one], under “Homo sapiens, T-cell”, the pIC50 is greater than 6.30.
